From patent publication US20030105115A1, “Novel pyridopyrimidines and uses thereof” (priority 2001, published 2003)

Assay: Hydroxyapatite assay (hydroxyapatite adsorption chromatography, bone-targeting potential)
Format: physicochemical
Details: corrected retention K=(retention time-void time)/void on TSK-Gel HA 1000 HPLC column; linear gradient 10 mM to 500 mM sodium phosphate, 0.15 N NaCl, pH 6.8
Description: Hydroxyapatite is the principal mineral component of bone. Hydroxyapatite adsorption chromatography is used as an assay to evaluate the bone-targeting potential of both individual bone-targeting moieties (“monomers”) and of pharmaceuticals incorporating bone-targeting groups.
The rentention time of the compound is expressed in terms of K=(retention time-void time)/void. This K value is corrected using two reference compounds to correct from inter-column and inter-system variation to obtain a K′ value.
Reference Compounds: K′ values were determined for known bone targeted compounds, the bisphosphonate, alendronate and tetracycline.

NCCCC(O)(P(=O)(O)O)P(=O)(O)O [Alendronate, alendronate]
K′ value: 3.7
